According to ChEMBL document CHEMBL1201862, “PubChem BioAssay data set” (2004):
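A five-concentration, 48-hour dose response in 96-well plates underlies each endpoint, interpolated linearly between surrounding concentrations. Here, GI50 denotes the concentration required for 50% inhibition of growth.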 The source made the active and inactive calls. No stated cut-off is given here; in the data, active = GI50 up to about 1.1 µM and inactive = higher.

Columns and labels:
Experiment in all cases: inhibition of tumour cell growth, NCI panel, 48 h
[1] = tested on: A498
[2] = tested on: A549
[3] = tested on: ACHN
[4] = tested on: DU-145
[5] = tested on: Hs-578T
[6] = tested on: K562
[7] = tested on: KM12
[8] = tested on: M14
[9] = tested on: MDA-MB-231
[10] = tested on: MDA-MB-435
[11] = tested on: OVCAR-3
[12] = tested on: OVCAR-4
[13] = tested on: OVCAR-8
[14] = tested on: PC-3
[15] = tested on: RXF 393
[16] = tested on: SK-MEL-2
[17] = tested on: SR
[18] = tested on: SW-620
[19] = tested on: UO-31
[20] = tested on: NCI-H522

Measured: GI50

Fc1cccc(C2SCC3=Nc4ccccc4CN32)c1 (stereo not drawn)
inactive: [1] > 100 µM | [2] 59.6 µM | [3] 36.9 µM | [4] 52.4 µM | [5] > 10 µM | [6] 88.9 µM | [7] 95.5 µM | [8] 33.3 µM | [9] > 100 µM | [10] 33 µM | [11] 20.2 µM | [12] 95.7 µM | [13] 27 µM | [14] 28.2 µM | [15] 26.8 µM | [16] 13.4 µM | [17] 38.6 µM | [18] > 100 µM | [19] 41.5 µM

CC#CC#C/C(=C/C=CC(=O)OC)SC
inactive: [1] > 100 µM | [2] > 100 µM | [4] > 100 µM | [5] > 100 µM | [6] > 100 µM | [7] > 100 µM | [8] > 100 µM | [9] > 100 µM | [10] > 100 µM | [20] > 100 µM | [12] > 100 µM | [13] > 100 µM | [14] > 100 µM | [16] > 100 µM | [17] > 10 µM | [18] > 100 µM

O=[N+]([O-])c1sc2ccc(Cl)cc2c1Nc1ccc(Cl)cc1
inactive: [1] > 100 µM | [2] > 100 µM | [3] > 100 µM | [4] > 100 µM | [5] > 100 µM | [6] > 100 µM | [7] > 100 µM | [8] > 100 µM | [9] > 100 µM | [10] > 100 µM | [20] > 100 µM | [11] > 100 µM | [12] 2.55 µM | [13] > 100 µM | [14] > 100 µM | [15] > 100 µM | [16] > 100 µM | [18] > 100 µM | [19] > 100 µM

O=C(O)CCC(=O)Nc1ccc2c(c1)S(=O)(=O)N(CC(=O)O)C2=O
inactive: [1] > 100 µM | [2] > 100 µM | [3] > 100 µM | [4] > 100 µM | [5] > 100 µM | [6] > 100 µM | [7] 21.9 µM | [8] > 100 µM | [9] > 100 µM | [10] > 100 µM | [20] > 100 µM | [11] > 100 µM | [12] > 100 µM | [13] > 100 µM | [14] > 100 µM | [16] > 100 µM | [17] > 100 µM | [18] > 100 µM | [19] > 100 µM
